Where a name gives a salt, the structure may show the parent alone.
Experiments:
[1] = Redox potential (eH) and pH measurements of cecal contents; format: in vivo, C57BL/6J mice; details: mice on standard chow diet
Procedure: Mouse assays. C57BL/6J mice following the habituation period were given one week to acclimate to the control 0-fiber diet with 20% (w/w) glucose. After this diet acclimation period, mice were randomized into new cages for each diet/antibiotic condition. Amoxicillin was administered via drinking water (25 mg/kg/day) ad libitum for the specified timepoints. All drinking water was filter-sterilized before administration. Fecal samples were collected at the specified timepoints and stored at −20° C. until nucleic acid extraction. Cecum contents were collected directly into bead-bashing tubes with DNA/RNA shield (Zymo Research, Irvine, CA, USA) and stored at −80° C. for nucleic acid extraction. […]
Redox potential and pH measurements. Redox potential was measured according to a modified protocol from Husson (2012); Husson et al. (2016) with an Ag/AgCl Reference electrode (Radiometer analytical E21M002, Radiometer Analytical Pt plate electrode 5×5 mm M241 Pt), and a voltmeter. […] The samples were blinded and measured in random order. […]
The platinum electrode was inserted into each sample. […] The same cecal extracts were used to measure pH using a PH meter and for subsequent validation with ATP assays, 16S rRNA sequencing and quantitative polymerase chain reaction (qPCR) bacterial load. […]

murine gut microbiome = test: Oats diet with amoxicillin challenge, 16S rRNA sequencing of fecal pellets (Example 11); format: in vivo, C57BL/6J mice; details: Day 5, across each diet group
Text: In Example 11, mice were fed LabDiet 5001 (LD01; LabDiet, St. Louis, MO, USA) feed pellets for a 2-week habituation period. For experimental diets, a custom base diet reflecting standard mouse chow fiber content was designed (Envigo-Teklad, Madison, WI, USA). The base diet modifies AlN-93G (TD.180901) by removing all cellulose and reducing cornstarch content while adjusting micro- and macronutrient contents so the diet could be an 80% base for 20% (wt/wt) supplementation with other carbon sources. Buffalo cornstarch (Ingredion Incorporated, IL, USA) was used to increase host accessibility and reduce cornstarch availability in the cecum and lower gastrointestinal tract. […]
In Example 11, total DNA and RNA was liberated from bacteria by bead-bashing fecal or cecum samples for 5 min on a Bead Ruptor 96 (Omni International, Kennesaw, GA). […] Nucleic acids were eluted in nuclease-free water and measured using the double-stranded DNA high sensitivity (dsDNA-HS) or RNA-HS kits on a Qubit 3.0 fluorometer (Thermo Fisher Scientific, Waltham, MA, USA).
In Example 11, the 16S rRNA gene V4 region was amplified from fecal total DNA using barcoded 515F forward and indexed 806R reverse primers as described by Parada, Needham, & Fuhrman, Environ. […] Amplicons were verified by gel electrophoresis, measured on the Qubit 3.0 and pooled in equimolar concentrations. […]

E. coli (MG1655) = test: NAD+/NADH reporter: E. coli reporter assay; format: cell-based, Escherichia coli
Procedure: NAD+/NADH reporter: E. coli reporter assay. The NAD+/NADH reporter plasmid (Liu et al., 2019) was transformed into E. coli (MG1655) for growth and fluorescence assays. Overnight cultures of E. coli were diluted 1:1000 in fresh Luria Broth. The diluted cultures were allowed to grow to 0.2 OD before treatment with amoxicillin and metformin. Fluorescence and growth (in OD) were measured in parallel using two plate readers. Data is shown with fluorescence normalized to growth and as separate growth and fluorescence curves.
This ratio is a stand in for cellular bioenergetics with a high ratio indicative of increased catabolism
The inventors then treated these bacteria with metformin and measured their growth and fluorescence. […] Dwyer et al. (2014). […] Stynen et al. (2018).

[2] = Mass spectrometry for metformin measurement in serum, liver and cecum; format: in vivo, C57BL/6J mice; details: low-fiber glucose diet with 100 mg/kg metformin hydrochloride, five days, LC/MS
Procedure: (§1) Metformin in vivo supplementation. Metformin hydrochloride (Fisher Scientific, Waltham, MA, USA) was added to powdered mouse diet at 100 mg/kg (w/w) or 0.1% in the glucose diet and homogenized before administration to mice via feeding jars. In the chow diet metformin was added 50 mg/kg (w/w) or 0.05%.
Mass spectrometry for metformin measurement. Plasma, liver and cecal samples were collected for from the sacrificed mice in the two metformin supplementation assays (n=6 mice per group, twenty-four mice/assay). The liver was perfused with phosphate-buffered saline upon collection and the tissue was homogenized with reverse osmosis-purified water at 1 mg/10 μL using a Bead Ruptor at speed 30 for five minutes. Supernatants from the homogenate was collected after centrifugation at 2000×g for five minutes to pellet beads. Cecal contents were also homogenized with reverse osmosis-purified water at 1 mg/10 μL, and supernatants were used for analysis. Metformin extraction and mass spec protocol modified from Chaudhari et al. (2020). For metformin extraction, 30 μL of cecal/tissue homogenates or plasma were added to 70 μL of D6-metformin ([sequence]) at 250 μM concentration in methanol. […]
Metformin in biological samples after spiking with D6-metformin ([sequence]) and extraction was quantitated with HPLC-MS on an Ultimate 3000, Dionex coupled to Q Executive Classic (Thermo Fisher) with ESI interface. […]

E. coli = test: Amoxicillin kill curve in E. coli; format: cell-based, Escherichia coli; details: aerobic, increasing concentrations of metformin
Procedure: Bacterial strains. Bacteroides thetaiotaomicron (VPI-5482) can be obtained from the American Type Culture Collection (ATCC; Manassas, VA, USA). Bacteroides theta was cultured in modified Gifu Anaerobic Media (mGAM, HyServe). Escherichia coli (MG1655) was cultured in Luria Broth (Fisher Scientific, Waltham, MA, USA). Anaerobic assays were cultured in a BactronEZ anaerobic chamber (Sheldon Manufacturing, Cornelius, OR, USA) under an atmosphere of 5% H2, […]. All bacteria were grown at 37° C.
Amoxicillin kill curves in E. coli and B. theta. Kill Curves for E. coli were done in an aerobic environment and for B. theta in the anaerobic chamber. Overnight cultures s were grown in Luria Broth (E. coli) or mGAM (B. theta). Overnight cultures were diluted 1:100 in fresh media. They were allowed to grow to 0.2 OD before treatment with amoxicillin and metformin. Samples were grown at 37° C. and plated every two hours for six hours in serial dilutions. Colony forming units (CFUs) were measured the following day.
The inventors then tested the survival of bacteria treated with metformin against amoxicillin. […] These assays were conducted aerobically in E. coli.

gut microbiome = test: Metformin in vivo supplementation during antibiotic treatment, 16S rRNA sequencing of cecal contents; set-up: species or system C57BL/6J mice
Procedure: Mouse assays. C57BL/6J mice following the habituation period were given one week to acclimate to the control 0-fiber diet with 20% (w/w) glucose. After this diet acclimation period, mice were randomized into new cages for each diet/antibiotic condition. Amoxicillin was administered via drinking water (25 mg/kg/day) ad libitum for the specified timepoints. All drinking water was filter-sterilized before administration. Fecal samples were collected at the specified timepoints and stored at −20° C. until nucleic acid extraction. Cecum contents were collected directly into bead-bashing tubes with DNA/RNA shield (Zymo Research, Irvine, CA, USA) and stored at −80° C. for nucleic acid extraction. For the redox potential (eH) and pH measurements, total cecal contents were immediately flash frozen in liquid nitrogen and lyophilized and stored at −80° C. until measurements were taken.
16S rRNA amplicon preparation and sequencing. The 16S rRNA V4 hypervariable region was amplified from total DNA using the barcoded 515F forward primer and the 806R reverse primers from the Earth Microbiome Project (Thompson et al., 2017). Amplicons were generated using 5× Phusion High-Fidelity DNA Polymerase under these cycling conditions: (1) initial denaturation at 98 °C for thirty seconds, followed by (2) twenty-five cycles of 98 °C for ten seconds, 57 °C for thirty seconds, and 72° C. for thirty seconds, then (3) a final extension at 72 °C for five minutes. Gel electrophoresis was used to visualize amplicons and pooled in equimolar amounts. The pooled amplicon library was submitted to the Rhode Island Genomics and Sequencing Center at the University of Rhode Island (Kingston, RI, USA) for sequencing on the Illumina MiSeq platform. Amplicons were paired-end sequenced (2×250 bp) using the 600-cycle kit with standard protocols. Raw reads were deposited in the NCBI Sequence Read Archive (SRA).
16S sequencing analysis. Raw 16S rRNA reads were first demultiplexed with idemp. Quality filtering, trimming, de-noising with DADA2 (q2-dada2). […] Merging was done using the Qiime2 pipeline (version 2019.10). […] Ribosomal sequence variants were aligned with mafft (q2-alignment). […] Phylogenetic tree construction was done with fasttree2 (q2-phylogeny). […] Taxonomic assignment was conducted using the pre-trained Naive Bayes classifier and the q2-feature-classifier (Bokulich et al., 2018) trained on the SILVA 132 99% database. […] Alpha diversity (Shannon, Faith's phylogenetic diversity) and beta diversity (Bray-Curtis dissimilarity) were calculated using the phyloseq package (version 1.30.0) in R (version 3.6.2).
as §1
The inventors used metformin supplemented diets and supplemented the control low-fiber diet with 100 mg/kg of metformin hydrochloride (MPI Chemicals) during antibiotic treatment for five days.
The inventors then extracted DNA from the cecal contents of mice Day 1 and Day 5 following antibiotic treatment and used 16S rRNA sequencing to investigate changes in gut microbiome composition.

[3] = test system: Bacteroides thetaiotaomicron; test: Amoxicillin kill curve in B. theta; format: cell-based; details: anaerobic
Procedure: Bacteroides theta was cultured in modified Gifu Anaerobic Media (mGAM, HyServe). […] Anaerobic assays were cultured in a BactronEZ anaerobic chamber (Sheldon Manufacturing, Cornelius, OR, USA) under an atmosphere of 5% H2, 5% N2, and 90% CO2. All bacteria were grown at 37° C.

Row | Structure (SMILES) | chemical redox of cecal contents [1] | relative proportion of Bacteroidota and Verrucomicrobiota compared to controls (murine gut microbiome) | NADH reporter fluorescence (NADH/NAD+ ratio) (E. coli (MG1655); E. coli, antibiotic treatment) | metformin levels in cecum, liver and serum [2] | survival of bacteria challenged with amoxicillin (E. coli) | Desulfobacterota and Cyanobacteria phyla abundance (gut microbiome; all metformin treatment groups, low-fiber glucose diet and laboratory chow) | antibiotic-induced decrease in diversity (Shannon) (gut microbiome; glucose diet with metformin, Day 1 and Day 5 of antibiotic treatment) | Proteobacteria at Day 5 of antibiotic treatment (gut microbiome; glucose diet, metformin plus antibiotic, Day 5) | bacterial diversity, metformin alone (gut microbiome; glucose diet, no antibiotics, Day 5) | initial spike in Proteobacteria during antibiotic treatment (gut microbiome; glucose low-fiber diet, Day 1) | reduction in microbial diversity during antibiotic treatment (gut microbiome; laboratory chow with metformin) | protection from amoxicillin (kill curve) [3] | NADH reporter fluorescence (NADH/NAD+ ratio), effect on the antibiotic-induced increase (E. coli (MG1655); E. coli treated with amoxicillin and metformin)
1 | CC1(C)S[C@@H]2[C@H](NC(=O)[C@H](N)c3ccc(O)cc3)C(=O)N2[C@H]1C(=O)O [amoxicillin, Amoxicillin] | increased the chemical redox | Bacteroidota receded and that of Verrucomicrobiota increased | significantly increased fluorescence | – | – | – | – | – | – | – | – | – | –
2 | CN(C)C(=N)N=C(N)N [metformin, Metformin hydrochloride] | – | – | – | significantly higher in the cecum compared to the liver and serum | improved the survival of bacteria | complete depletion | smaller decrease in diversity | bloom in Proteobacteria in the Moraxellaceae family | significant changes in bacterial diversity | prevented the initial spike in Proteobacteria | smaller reduction in microbial diversity | significant protection from amoxicillin | suppressed this increase

From patent US20240180955A1, “FIBER SUPPLEMENTATION PROTECTS FROM ANTIBIOTIC-INDUCED GUT MICROBIOME DYSBIOSIS BY MODULATING REDOX METABOLISM” (Brown University, priority 2022, published 2024)
